One molecule from paper PMC9352670 (2022) can be followed below.

Each structure is given as a SMILES string.

This experiment has as its system Dm-HS-1 TTC ∆ s.c. (DNA, aptamer, no side-chain at 22 (codon 2 TTC); others as HFNAP: fluorophenyl at 19; allylamine at 25, 37; alcohol at 28, 34, 49; phenol at 31, 46; cyclopentyl at 40; cyclopropyl at 43, 58; imidazole at 52, 55, 61) GAAAGCAGGACTGGAGATCGATTCTGGTGCTGTTGATCTCCGCCATTGTGCTCCTACCCTTCACAGACCGAACTAGAGCTT
The experiment can be described thus: microscale thermophoresis. To be noted: 5 mM KCl, 1 mM MgCl2, 1 mM CaCl2 added to HBS-P+; HBS-P+ buffer, 25 °C.

In turn, `COc1cccc2c1C(=O)c1c(O)c3c(c(O)c1C2=O)C[C@@](O)(C(C)=O)C[C@@H]3O[C@H]1C[C@H](N)[C@H](O)[C@H](C)O1` came in with a Kd of 16.2 ± 3.2 nM.
